Data published in patent US9604987B2, “Synthesis of autophagy inducing compound and the uses thereof” (Hong Kong Baptist University, priority 2012, dated 2017).

Experiments:
N2a cells = assay: Western blot of autophagy marker LC3-II in N2a cells; assay type: cell-based, mouse; conditions: N2a, oxindole alkaloids, 12 hours
Method: Native and denatured PAGE and Western blotting analysis. Samples to be run under denaturing conditions were lysed with RIPA lysis buffer (150 mM NaCl, 50 mM Tris-HCl, 0.35% sodium deoxycholate, 1 mM EDTA, 1% NP40, 1 mM PMSF, 5 μg/ml aprotinin, 5 μg/ml leupeptin). Samples for native gels were lysed with detergent-free lysis buffer (50 mM Tris/HCl pH 7.4, 175 mM NaCl, 5 mM EDTA pH 8.0, 1 mM PMSF, 5 μg/ml aprotinin, 5 μg/ml leupeptin), and sheared 5 times through a 28-gauge needle followed by 2 times of sonication for 5 seconds according to previously described protocol. For denaturing, SDS-PAGE was performed using Tris-Glycine SDS running buffer and SDS sample buffer, and for native conditions, native-PAGE was run with detergent-free Tris-Glycine running buffer (BN2007, Invitrogen) and 4× native sample buffer (BN2003, Invitrogen) on a pre-casted native PAGE gel (BN1002BOX, Invitrogen). The proteins on the gels were then transferred to PVDF membrane (RPN303F, GE Healthcare) and processed for immunoblotting. Membranes were blocked with 5% non-fat milk and probed with the appropriate primary and secondary antibodies. The desired bands were visualized using the ECL kit (32106, Pierce). The band density was quantified using the ImageJ program and normalized to that of the control group.
In order to confirm the neuronal autophagy inducing activity of Cory B (its chemical structure is shown in FIG. 1A), mouse neuroblastoma N2a, rat phenochromocytoma PC12 and human neurobastoma SH-SY5Y are treated with different concentrations of Cory B for 24 hours and cell lysates are subjected to western blotting analysis of LC3-II expression which is an autophagy-specific marker.
To confirm that enhancement of autophagy markers by Cory B is due to induction of autophagy rather than blockage of autophagosome maturation, N2a cells are treated with 25 μM Cory B or 30 μM lysosome inhibitor CQ together with Cory B for 12 hours. Cell lysates are subject to western blot analysis. Data are presented as the mean±SEM from 3 independent experiments (***p<0.001, one-way ANOVA for multiple comparison and Tukey's test as post hoc test). Both LC3-II levels and the number of GFP-LC3 puncta in the Cory B and CQ co-treatment group are much higher than in the CQ-alone treatment group (FIG. 2A-D). Meanwhile, Cory B induces GFP-LC3 puncta formation is abolished by treatment of 5 mM autophagy inhibitor 3-MA for 24 hours (FIG. 2C, D). Cells were fixed in 4% paraformaldehyde and analyzed under a confocal microscope. Data are presented as the mean±SEM of one representative experiment from three independent experiments. (***p<0.001, one-way ANOVA for multiple comparison and Tukey's test as post hoc test). […] Thus, Cory B is indeed an autophagy inducer in neuronal cells.
To compare the activities of oxindole alkaloids on autophagy induction, LC3II expression levels in N2a cells after treatment with Corynoxine B (Cory B) (FIG. 8A), Corynoxine (Cory) (FIG. 8B), Rhynchophylline (Rhy) (FIG. 8C) and Isorhynchophylline (IsoRhy) for 12 hours are examined.
In order to examine the pro-autophagic activities of the synthesized Cory B analogues, neuroblastoma 2a, a neuronal cell line, are treated with various concentrations of the analogues for 12 hrs. The cells are then harvested and lysed with RIPA buffer (150 mM NaCl, 50 mM Tris-HCl pH 7.4, 0.35% sodium deoxycholate, 1 mM EDTA, 1% NP40, 1 mM PMSF, 5 μg/ml aprotinin, 5 μg/ml leupeptin). The sample are lysed on ice with occasional vortex for 30 min, and then centrifuged at 14,000 rpm for 15 min at 4° C. The supernatant are collected and denatured at 95° C. in sample buffer for 5 min. The denatured samples are then separated on 15% SDS-PAGE gels and transferred to PVDF membrane. Membranes are then blocked with 5% non-fat milk and probed with appropriate primary and secondary antibodies. The protein signals of LC3II, marker protein of autophagy, are finally visualized with ECL kit and the protein bands density are quantified by ImageJ program. […]

N2a Swedish APP cells = assay: APP reduction in N2a Swedish APP cells (western blot); assay type: cell-based, mouse; conditions: different concentrations, with or without CQ and 3MA
Method: N2a Swedish APP cells are incubated with different concentration of Cory and Cory B in the presence or absence of CQ and 3MA. […] Tg2567 APP mice, 3 months old JNPL P301 Tau mice and WT mice intraperitoneally are administrated with 20 mg/kg/d CoryB.

SMILES	autophagy induction (LC3II expression level) (N2a cells)	full length and CTF APP (N2a Swedish APP cells)
CC[C@@H]1CN2CC[C@@]3(C(=O)Nc4ccccc43)C2C[C@@H]1C(=COC)C(=O)OC (stereo partly shown) [Cory, corynoxine]	significantly activate autophagy	dose-dependently reduce both full length and CTF APP
CC[C@H]1CN2CC[C@@]3(C(=O)Nc4ccccc43)[C@@H]2C[C@@H]1/C(=C\OC)C(=O)OC [IsoRhy, Isorhynchophylline, reference compound]	did not show any activity on autophagy induction	
CC[C@H]1CN2CC[C@]3(C(=O)Nc4ccccc43)[C@@H]2C[C@@H]1/C(=C\OC)C(=O)OC [Rhy, Rhynchophylline, reference compound]	did not show any activity on autophagy induction	
